Assay results published in the kinase profiling compilation of Christmann-Franck et al. (2016).

What was measured:
Test in all cases: KINOMEscan competition binding
Conditions in all cases: compound 10.0 µM
[1] = system: FLT3 (human), P36888 [D835H]
PDGFRA (human) = PDGFRA (human) (UniProt P16234)
BLK (human) = BLK (human) (UniProt P51451)
PDGFRB (human) = PDGFRB (human) (UniProt P09619)
PRKD3 (human) = PRKD3 (human) (UniProt O94806)
[2] = system: ABL1 (human), P00519 [F317L]
FLT3 (human) = FLT3 (human) (UniProt P36888)
TNK2 (human) = TNK2 (human) (UniProt Q07912)
CSF1R (human) = CSF1R (human) (UniProt P07333)
FRK (human) = FRK (human) (UniProt P42685)
[3] = system: KIT (human), P10721 [V559D/V654A]
KIT (human) = KIT (human) (UniProt P10721)
PLK3 (human) = PLK3 (human) (UniProt Q9H4B4)
CHEK1 (human) = CHEK1 (human) (UniProt O14757)
SIK2 (human) = SIK2 (human) (UniProt Q9H0K1)
MYLK4 (human) = MYLK4 (human) (UniProt Q86YV6)
SLK (human) = SLK (human) (UniProt Q9H2G2)
PRKD1 (human) = PRKD1 (human) (UniProt Q15139)
BMP2K (human) = BMP2K (human) (UniProt Q9NSY1)
[4] = system: EIF2AK4 KD2 (human), Q9P2K8 [S808G]
[5] = system: KIT (human), P10721 [V559D/T670I]
TNK1 (human) = TNK1 (human) (UniProt Q13470)
[6] = system: ABL1 (human), P00519 [F317I]
[7] = system: KIT (human), P10721 [D816V]
[8] = system: KIT (human), P10721 [V559D]
RIOK3 (human) = RIOK3 (human) (UniProt O14730)
RPS6KA1 KD2 (human) = RPS6KA1 KD2 (human) (UniProt Q15418)
PIP5K1A (human) = PIP5K1A (human) (UniProt Q99755)
RPS6KA6 KD2 (human) = RPS6KA6 KD2 (human) (UniProt Q9UK32)
STK33 (human) = STK33 (human) (UniProt Q9BYT3)
[9] = target: TYK2 JH2 pseudokinase (human) (UniProt P29597)
FGFR4 (human) = FGFR4 (human) (UniProt P22455)
FLT4 (human) = FLT4 (human) (UniProt P35916)
NEK2 (human) = NEK2 (human) (UniProt P51955)
[10] = system: FLT3 (human), P36888 [K663Q]
GAK (human) = GAK (human) (UniProt O14976)
RIOK1 (human) = RIOK1 (human) (UniProt Q9BRS2)
EGFR (human) = EGFR (human) (UniProt P00533)
PLK1 (human) = PLK1 (human) (UniProt P53350)
[11] = system: EGFR (human), P00533 [L861Q]
[12] = system: EGFR (human), P00533 [P753S; 747-752 del]
PTK2B (human) = PTK2B (human) (UniProt Q14289)
[13] = system: EGFR (human), P00533 [G719S]
[14] = system: EGFR (human), P00533 [A750P; 747-749 del]
[15] = system: EGFR (human), P00533 [G719C; 746-750 del]
TTK (human) = TTK (human) (UniProt P33981)
[16] = system: EGFR (human), P00533 [L858R]
[17] = system: EGFR (human), P00533 [752-759 del]
PTK2 (human) = PTK2 (human) (UniProt Q05397)
[18] = system: EGFR (human), P00533 [747-751 del / S ins]

Chain of PLK3 (human) (Q9H4B4 whole entry, looked up): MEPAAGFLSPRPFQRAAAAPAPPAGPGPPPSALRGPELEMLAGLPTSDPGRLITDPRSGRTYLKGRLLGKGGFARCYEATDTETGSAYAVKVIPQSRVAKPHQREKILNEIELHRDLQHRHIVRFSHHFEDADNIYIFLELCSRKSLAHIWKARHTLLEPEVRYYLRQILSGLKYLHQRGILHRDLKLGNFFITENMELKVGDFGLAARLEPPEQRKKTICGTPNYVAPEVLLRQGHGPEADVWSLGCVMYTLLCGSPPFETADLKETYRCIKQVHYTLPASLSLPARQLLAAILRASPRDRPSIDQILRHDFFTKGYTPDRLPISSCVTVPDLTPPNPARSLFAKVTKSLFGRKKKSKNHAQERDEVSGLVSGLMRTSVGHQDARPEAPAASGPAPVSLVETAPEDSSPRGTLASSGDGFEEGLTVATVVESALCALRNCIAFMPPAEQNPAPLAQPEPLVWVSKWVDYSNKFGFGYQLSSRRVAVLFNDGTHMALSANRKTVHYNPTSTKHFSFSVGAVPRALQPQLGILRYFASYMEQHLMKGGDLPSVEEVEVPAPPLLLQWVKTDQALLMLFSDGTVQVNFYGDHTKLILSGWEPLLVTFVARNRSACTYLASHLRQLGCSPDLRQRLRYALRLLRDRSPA
Chain of GAK (human) (O14976 whole entry, looked up): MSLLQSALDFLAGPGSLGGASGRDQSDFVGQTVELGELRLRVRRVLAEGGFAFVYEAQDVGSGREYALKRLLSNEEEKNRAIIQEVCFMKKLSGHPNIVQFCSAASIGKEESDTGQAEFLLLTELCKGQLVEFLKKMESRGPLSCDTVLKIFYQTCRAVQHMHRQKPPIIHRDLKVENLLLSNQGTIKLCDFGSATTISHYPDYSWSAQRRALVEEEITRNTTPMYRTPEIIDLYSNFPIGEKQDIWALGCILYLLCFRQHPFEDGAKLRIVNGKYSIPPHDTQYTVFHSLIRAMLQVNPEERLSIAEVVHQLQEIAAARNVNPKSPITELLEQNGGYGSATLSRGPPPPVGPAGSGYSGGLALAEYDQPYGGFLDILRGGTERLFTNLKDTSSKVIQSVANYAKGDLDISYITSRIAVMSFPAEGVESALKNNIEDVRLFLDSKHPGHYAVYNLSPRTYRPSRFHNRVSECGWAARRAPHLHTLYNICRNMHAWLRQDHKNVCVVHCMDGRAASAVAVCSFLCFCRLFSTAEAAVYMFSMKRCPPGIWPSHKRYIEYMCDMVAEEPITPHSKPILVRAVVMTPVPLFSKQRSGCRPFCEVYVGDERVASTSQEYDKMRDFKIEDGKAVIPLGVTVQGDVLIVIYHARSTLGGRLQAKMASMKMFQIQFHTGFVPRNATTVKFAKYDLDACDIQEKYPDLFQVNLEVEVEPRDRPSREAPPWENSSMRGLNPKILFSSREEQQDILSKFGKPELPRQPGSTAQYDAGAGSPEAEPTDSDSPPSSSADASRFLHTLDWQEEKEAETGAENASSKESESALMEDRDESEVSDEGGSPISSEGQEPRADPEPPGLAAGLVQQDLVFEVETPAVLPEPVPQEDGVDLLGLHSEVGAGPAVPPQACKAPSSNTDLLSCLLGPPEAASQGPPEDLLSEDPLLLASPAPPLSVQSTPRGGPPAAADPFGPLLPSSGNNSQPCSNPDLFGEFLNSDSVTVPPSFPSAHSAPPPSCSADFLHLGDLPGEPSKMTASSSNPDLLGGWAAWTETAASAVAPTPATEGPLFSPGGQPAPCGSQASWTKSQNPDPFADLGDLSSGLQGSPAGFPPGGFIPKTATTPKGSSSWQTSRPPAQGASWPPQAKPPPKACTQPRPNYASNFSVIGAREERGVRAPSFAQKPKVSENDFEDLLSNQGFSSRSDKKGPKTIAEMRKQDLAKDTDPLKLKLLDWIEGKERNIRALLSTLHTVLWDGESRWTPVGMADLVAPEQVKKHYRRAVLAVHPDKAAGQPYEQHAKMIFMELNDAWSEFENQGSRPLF
Chain of KIT (human), P10721 [V559D/V654A] (P10721 whole entry V559D/V654A, looked up): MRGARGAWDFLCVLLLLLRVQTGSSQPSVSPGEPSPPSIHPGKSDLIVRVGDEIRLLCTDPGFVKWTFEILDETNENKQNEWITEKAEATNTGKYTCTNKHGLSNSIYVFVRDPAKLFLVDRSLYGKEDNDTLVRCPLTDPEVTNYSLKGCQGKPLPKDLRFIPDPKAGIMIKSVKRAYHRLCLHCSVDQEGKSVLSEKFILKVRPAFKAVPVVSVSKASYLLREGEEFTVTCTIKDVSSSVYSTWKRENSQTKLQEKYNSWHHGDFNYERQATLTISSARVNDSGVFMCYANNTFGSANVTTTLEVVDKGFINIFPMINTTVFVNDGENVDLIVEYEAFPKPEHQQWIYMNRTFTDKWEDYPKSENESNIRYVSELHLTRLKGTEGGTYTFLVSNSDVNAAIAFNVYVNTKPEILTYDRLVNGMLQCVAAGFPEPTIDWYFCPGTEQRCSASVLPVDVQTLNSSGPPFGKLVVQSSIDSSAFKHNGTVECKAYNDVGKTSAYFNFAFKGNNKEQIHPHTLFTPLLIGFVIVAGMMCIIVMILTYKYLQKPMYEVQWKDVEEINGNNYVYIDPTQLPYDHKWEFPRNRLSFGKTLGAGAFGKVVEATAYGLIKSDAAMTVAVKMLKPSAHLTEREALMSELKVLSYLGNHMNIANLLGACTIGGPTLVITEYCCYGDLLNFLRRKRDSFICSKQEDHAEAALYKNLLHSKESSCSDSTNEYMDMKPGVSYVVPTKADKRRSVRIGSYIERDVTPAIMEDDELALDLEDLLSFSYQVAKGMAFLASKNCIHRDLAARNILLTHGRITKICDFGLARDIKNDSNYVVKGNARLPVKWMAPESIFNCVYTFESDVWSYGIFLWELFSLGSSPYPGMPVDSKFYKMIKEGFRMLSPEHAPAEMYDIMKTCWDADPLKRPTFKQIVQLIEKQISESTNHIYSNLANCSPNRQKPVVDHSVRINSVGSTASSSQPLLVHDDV
Chain of RPS6KA6 KD2 (human) (Q9UK32 whole entry, looked up): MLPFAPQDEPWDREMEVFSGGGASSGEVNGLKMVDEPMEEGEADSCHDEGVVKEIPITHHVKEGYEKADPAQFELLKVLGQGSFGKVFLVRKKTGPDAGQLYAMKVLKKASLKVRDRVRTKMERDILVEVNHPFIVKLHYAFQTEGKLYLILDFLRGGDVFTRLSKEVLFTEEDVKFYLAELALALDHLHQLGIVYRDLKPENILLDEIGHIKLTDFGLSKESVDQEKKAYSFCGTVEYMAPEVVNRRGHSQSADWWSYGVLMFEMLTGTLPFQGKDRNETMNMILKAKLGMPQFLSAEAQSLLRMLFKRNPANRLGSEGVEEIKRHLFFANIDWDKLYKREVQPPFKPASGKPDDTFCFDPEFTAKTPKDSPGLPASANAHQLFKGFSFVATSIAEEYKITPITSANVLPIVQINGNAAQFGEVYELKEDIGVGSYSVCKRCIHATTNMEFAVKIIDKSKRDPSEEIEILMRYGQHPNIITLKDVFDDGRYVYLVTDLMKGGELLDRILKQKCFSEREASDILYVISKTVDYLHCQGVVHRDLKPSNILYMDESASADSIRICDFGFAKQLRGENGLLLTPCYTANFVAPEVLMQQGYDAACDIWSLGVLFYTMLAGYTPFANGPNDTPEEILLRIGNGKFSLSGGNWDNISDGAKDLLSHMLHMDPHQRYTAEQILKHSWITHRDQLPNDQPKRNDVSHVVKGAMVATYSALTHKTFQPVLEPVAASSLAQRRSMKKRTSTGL
Chain of SIK2 (human) (Q9H0K1 whole entry, looked up): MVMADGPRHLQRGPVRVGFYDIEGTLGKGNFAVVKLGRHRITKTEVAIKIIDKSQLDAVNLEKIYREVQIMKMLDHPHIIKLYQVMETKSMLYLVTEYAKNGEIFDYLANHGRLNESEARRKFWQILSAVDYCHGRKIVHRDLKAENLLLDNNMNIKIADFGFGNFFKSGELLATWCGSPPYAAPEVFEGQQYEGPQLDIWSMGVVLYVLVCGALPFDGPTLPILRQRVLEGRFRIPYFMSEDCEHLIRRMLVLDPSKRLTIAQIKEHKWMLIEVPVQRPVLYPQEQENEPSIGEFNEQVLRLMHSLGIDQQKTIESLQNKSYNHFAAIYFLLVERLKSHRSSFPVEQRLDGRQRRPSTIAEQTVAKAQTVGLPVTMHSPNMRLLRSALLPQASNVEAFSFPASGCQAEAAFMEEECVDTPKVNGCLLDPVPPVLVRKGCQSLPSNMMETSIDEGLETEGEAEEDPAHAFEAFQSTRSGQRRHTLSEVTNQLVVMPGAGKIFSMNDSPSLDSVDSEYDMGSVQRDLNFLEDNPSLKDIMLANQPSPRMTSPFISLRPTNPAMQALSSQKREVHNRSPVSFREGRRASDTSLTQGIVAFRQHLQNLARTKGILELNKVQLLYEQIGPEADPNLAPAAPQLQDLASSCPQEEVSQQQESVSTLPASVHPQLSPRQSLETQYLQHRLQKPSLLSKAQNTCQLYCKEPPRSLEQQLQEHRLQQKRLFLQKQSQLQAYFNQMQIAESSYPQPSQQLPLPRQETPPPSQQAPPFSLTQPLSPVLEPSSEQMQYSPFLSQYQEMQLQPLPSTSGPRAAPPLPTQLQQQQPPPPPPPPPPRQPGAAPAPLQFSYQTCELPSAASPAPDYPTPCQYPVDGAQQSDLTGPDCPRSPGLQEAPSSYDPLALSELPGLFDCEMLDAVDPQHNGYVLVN
Chain of KIT (human), P10721 [V559D] (P10721 whole entry V559D, looked up): as the sequence (P10721 whole entry V559D/V654A, looked up) above, with A654V counted along it
Chain of KIT (human) (P10721 whole entry, looked up): as the sequence (P10721 whole entry V559D/V654A, looked up) above, with D559V, A654V counted along it
Chain of MYLK4 (human) (Q86YV6 whole entry, looked up): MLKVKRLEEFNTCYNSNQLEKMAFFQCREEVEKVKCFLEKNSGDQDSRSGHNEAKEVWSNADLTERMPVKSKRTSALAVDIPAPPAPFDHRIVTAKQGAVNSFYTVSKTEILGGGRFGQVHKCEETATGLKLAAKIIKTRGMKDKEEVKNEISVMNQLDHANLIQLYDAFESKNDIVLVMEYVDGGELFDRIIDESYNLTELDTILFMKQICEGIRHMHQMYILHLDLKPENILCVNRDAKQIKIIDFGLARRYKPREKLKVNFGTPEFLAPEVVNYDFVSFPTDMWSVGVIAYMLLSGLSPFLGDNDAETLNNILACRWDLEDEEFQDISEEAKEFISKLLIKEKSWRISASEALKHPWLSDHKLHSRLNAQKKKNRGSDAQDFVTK

How did the kinase still bound, per cent of control [1] turn out when `COc1cc(N2CCN(C)CC2)ccc1Nc1ncc2c(n1)N1CCC[C@H]1CC(=O)N2` was run?
Its kinase still bound, per cent of control is 27%.

And the kinase still bound, per cent of control (PDGFRA (human))?
Its kinase still bound, per cent of control is 1.8%.

And the kinase still bound, per cent of control (BLK (human))?
Its kinase still bound, per cent of control is 23%.

And the kinase still bound, per cent of control (PDGFRB (human))?
Its kinase still bound, per cent of control is 0.05%.

What about the kinase still bound, per cent of control (PRKD3 (human)) of the same compound?
Its kinase still bound, per cent of control is 30%.

And the kinase still bound, per cent of control [2]?
The kinase still bound, per cent of control was 19%.

What about the kinase still bound, per cent of control (FLT3 (human)) of the same compound?
The kinase still bound, per cent of control was 11%.

And the kinase still bound, per cent of control (TNK2 (human))?
The kinase still bound, per cent of control was 8.6%.

What about the kinase still bound, per cent of control (CSF1R (human)) of the same compound?
Its kinase still bound, per cent of control is 0.8%.

And the kinase still bound, per cent of control (FRK (human))?
Its kinase still bound, per cent of control is 8.2%.

And the kinase still bound, per cent of control [3]?
Its kinase still bound, per cent of control is 8.4%.

What about the kinase still bound, per cent of control (KIT (human)) of the same compound?
Its kinase still bound, per cent of control is 0%.

And the kinase still bound, per cent of control (PLK3 (human))?
The kinase still bound, per cent of control was 9.5%.

And the kinase still bound, per cent of control (CHEK1 (human))?
Its kinase still bound, per cent of control is 6%.

And the kinase still bound, per cent of control (SIK2 (human))?
The kinase still bound, per cent of control was 18%.

What about the kinase still bound, per cent of control (MYLK4 (human)) of the same compound?
The kinase still bound, per cent of control was 7.8%.

What about the kinase still bound, per cent of control (SLK (human)) of the same compound?
The kinase still bound, per cent of control was 31%.

What about the kinase still bound, per cent of control (PRKD1 (human)) of the same compound?
The kinase still bound, per cent of control was 29%.

And the kinase still bound, per cent of control (BMP2K (human))?
The kinase still bound, per cent of control was 29%.

And the kinase still bound, per cent of control [4]?
Its kinase still bound, per cent of control is 21%.

What about the kinase still bound, per cent of control [5] of the same compound?
The kinase still bound, per cent of control was 33%.

And the kinase still bound, per cent of control (TNK1 (human))?
The kinase still bound, per cent of control was 25%.

What about the kinase still bound, per cent of control [6] of the same compound?
The kinase still bound, per cent of control was 13%.

What about the kinase still bound, per cent of control [7] of the same compound?
The kinase still bound, per cent of control was 12%.

And the kinase still bound, per cent of control [8]?
Its kinase still bound, per cent of control is 0%.

And the kinase still bound, per cent of control (RIOK3 (human))?
Its kinase still bound, per cent of control is 31%.

And the kinase still bound, per cent of control (RPS6KA1 KD2 (human))?
Its kinase still bound, per cent of control is 14%.

What about the kinase still bound, per cent of control (PIP5K1A (human)) of the same compound?
The kinase still bound, per cent of control was 11%.

And the kinase still bound, per cent of control (RPS6KA6 KD2 (human))?
The kinase still bound, per cent of control was 2%.

And the kinase still bound, per cent of control (STK33 (human))?
The kinase still bound, per cent of control was 12%.

What about the kinase still bound, per cent of control [9] of the same compound?
Its kinase still bound, per cent of control is 27%.

What about the kinase still bound, per cent of control (FGFR4 (human)) of the same compound?
Its kinase still bound, per cent of control is 17%.

What about the kinase still bound, per cent of control (FLT4 (human)) of the same compound?
The kinase still bound, per cent of control was 33%.

And the kinase still bound, per cent of control (NEK2 (human))?
Its kinase still bound, per cent of control is 24%.

What about the kinase still bound, per cent of control [10] of the same compound?
The kinase still bound, per cent of control was 19%.

And the kinase still bound, per cent of control (GAK (human))?
Its kinase still bound, per cent of control is 0.85%.

What about the kinase still bound, per cent of control (RIOK1 (human)) of the same compound?
Its kinase still bound, per cent of control is 21%.

What does the source list for `COc1cc(N2CCC(O)CC2)ccc1Nc1ncc2c(n1)N(c1ccccc1)CCC(=O)N2C`?
kinase still bound, per cent of control (EGFR (human)): 24%; kinase still bound, per cent of control (PLK1 (human)): 1.2%; kinase still bound, per cent of control [11]: 25%; kinase still bound, per cent of control [12]: 15%; kinase still bound, per cent of control (PLK3 (human)): 21%; kinase still bound, per cent of control (PTK2B (human)): 22%; kinase still bound, per cent of control [13]: 23%; kinase still bound, per cent of control [14]: 21%; kinase still bound, per cent of control [15]: 30%; kinase still bound, per cent of control (TTK (human)): 5%; kinase still bound, per cent of control [16]: 30%; kinase still bound, per cent of control [17]: 21%; kinase still bound, per cent of control (GAK (human)): 2%; kinase still bound, per cent of control (PTK2 (human)): 19%; kinase still bound, per cent of control [18]: 12%
